Values of other authors, collected in US10456366B2, “Composition and methods for tissue regeneration” (Chiou Consulting, Inc., priority 2017, dated 2019).

Key:
[1] = tested on: rats; settings: water containing 10% of PG, two years
[2] = tested on: dogs; settings: food containing 8% of PG, two years

## CC(O)CO (centres unmarked) [PG, propylene glycol]
[1]
  adverse effects on feeding: no adverse effects
[2]
  adverse effects on feeding: no adverse effects
